Assay results reported in patent US5086045A, “Antitumor antibiotic” (Bristol-Myers Squibb Company, priority 1990, dated 1992).
Entries after “also recorded” stand apart in the source; their conditions may differ.

What was measured:
P388 leukemia [1] = assay: In vivo antitumor activity, P388 leukemia implanted ip, drug ip; parameters: species or system mouse
Method: (§1) The in vivo antitumor activity of BMY-41339 was determined in the standard P388 mouse leukemia model. A summary of the experiments performed using BMY-41339 is provided below.
(§2) DBA/2 and (Balb/c × DBA/2)F1 (CDF1) hybrid mice were purchased from Charles River Breeding Co. (Wilmington, MA). They were provided food and water ad libitum.
(§3) The P388 murine ascites leukemia was maintained by weekly in vivo passage in DBA/2 mice.
(§4) Esperamicin A1 and BMY-41339 were dissolved in ethanol. Further dilutions were made with 0.9% NaCl (saline) until the ethanol concentration (v/v) was 10%. All administrations were made, therefore, in a 10% ethanol in saline vehicle. For ip injections, the concentration of compound was adjusted according to the average initial body weight of each group of mice to be injected such that the desired dose would be contained in a 0.5 ml injection volume. The same procedure was used for iv compound administration except the injection volume was 0.2 ml.
(§5) Antitumor experiments were initiated by implanting […] P388 leukemia cells either ip or iv into CDF1 mice. BMY-41339 and esperamicin A1 (included as a positive reference compound), were injected either ip in mice implanted ip with P388, or iv in mice implanted iv with P388 on Day 2 post-implant only Eight different dose levels of BMY-41339, at two-fold increments, were evaluated in each of the two experiments performed.
(§6) A % T/C value of ≥ 125 was considered indicative of activity in these models.

P388 leukemia [2] = assay: In vivo antitumor activity, P388 leukemia implanted iv, drug iv; parameters: species or system mouse;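 for % T/C: median survival time of treated over control mice times 100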;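 for T/C: median survival time of treated over control mice times 100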
Method: as §1, §2, §3, §4, §5, §6

a variety of bacteria = assay: Antimicrobial activity, serial two-fold agar dilution, overall; assay type: cell-based
Method: Antimicrobial activity of BMY-41339 was determined for a variety of bacteria by the serial two-fold agar dilution method.

[3] = Exp. 8102, iv, 0.025 mg/kg/dose
[4] = Exp. 8102, iv, same doses up to 3.2 μg/kg
[5] = Exp. 8109, iv, 0.025 mg/kg/dose

C=C(OC)C(=O)Nc1cc(OC)c(OC)cc1C(=O)OC1CC(OC2C(=O)C(NC(=O)OC)=C3C(=CCSSSSC)C2(O)C#CC=CC#CC3OC2OC(C)C(NOC3CC(O)C(SC)C(C)O3)C(O)C2OC2CC(OC)C(NC(C)C)CO2)OC(C)C1O (stereo not drawn) [BMY-41339]
% T/C (P388 leukemia [1]; Exp. 8109, ip, 1.6 mg/kg/dose): 145%
Avg. wt. change on day 6 (P388 leukemia [1]; Exp. 8109, ip, 1.6 mg/kg/dose): -0.1 grams
Survivors on Day 5 (P388 leukemia [1]; Exp. 8109, ip, 1.6 mg/kg/dose): 6/6
% T/C (P388 leukemia [1]; Exp. 8109, ip, 3.2 mg/kg/dose): 140%
Avg. wt. change on day 6 (P388 leukemia [1]; Exp. 8109, ip, 3.2 mg/kg/dose): 0.7 grams
Survivors on Day 5 (P388 leukemia [1]; Exp. 8109, ip, 3.2 mg/kg/dose): 6/6
increases in lifespan (P388 leukemia [1]; Exp. 8109, ip, 0.5 -32 μg/kg): active increases
activity against P388 leukemia (P388 leukemia [1]; conclusion, confirmed experimental results): active against P388 leukemia
% T/C (P388 leukemia [2]; [3]): 100%
Avg. wt. change on day 6 (P388 leukemia [2]; [3]): 0.4 grams
Survivors on Day 5 (P388 leukemia [2]; [3]): 6/6
% T/C (P388 leukemia [2]; Exp. 8102, iv, 0.05 mg/kg/dose): 100%
Avg. wt. change on day 6 (P388 leukemia [2]; Exp. 8102, iv, 0.05 mg/kg/dose): 0.1 grams
Survivors on Day 5 (P388 leukemia [2]; Exp. 8102, iv, 0.05 mg/kg/dose): 6/6
% T/C (P388 leukemia [2]; Exp. 8102, iv, 0.1 mg/kg/dose): 106%
Avg. wt. change on day 6 (P388 leukemia [2]; Exp. 8102, iv, 0.1 mg/kg/dose): 0.4 grams
Survivors on Day 5 (P388 leukemia [2]; Exp. 8102, iv, 0.1 mg/kg/dose): 6/6
% T/C (P388 leukemia [2]; Exp. 8102, iv, 0.2 mg/kg/dose): 100%
Avg. wt. change on day 6 (P388 leukemia [2]; Exp. 8102, iv, 0.2 mg/kg/dose): -0.3 grams
Survivors on Day 5 (P388 leukemia [2]; Exp. 8102, iv, 0.2 mg/kg/dose): 6/6
% T/C (P388 leukemia [2]; Exp. 8102, iv, 0.4 mg/kg/dose): 100%
Avg. wt. change on day 6 (P388 leukemia [2]; Exp. 8102, iv, 0.4 mg/kg/dose): -0.4 grams
Survivors on Day 5 (P388 leukemia [2]; Exp. 8102, iv, 0.4 mg/kg/dose): 6/6
% T/C (P388 leukemia [2]; Exp. 8102, iv, 0.8 mg/kg/dose): 100%
Avg. wt. change on day 6 (P388 leukemia [2]; Exp. 8102, iv, 0.8 mg/kg/dose): -0.3 grams
Survivors on Day 5 (P388 leukemia [2]; Exp. 8102, iv, 0.8 mg/kg/dose): 6/6
% T/C (P388 leukemia [2]; Exp. 8102, iv, 1.6 mg/kg/dose): 100%
Avg. wt. change on day 6 (P388 leukemia [2]; Exp. 8102, iv, 1.6 mg/kg/dose): -0.1 grams
Survivors on Day 5 (P388 leukemia [2]; Exp. 8102, iv, 1.6 mg/kg/dose): 6/6
% T/C (P388 leukemia [2]; Exp. 8102, iv, 3.2 mg/kg/dose): 113%
Avg. wt. change on day 6 (P388 leukemia [2]; Exp. 8102, iv, 3.2 mg/kg/dose): -0.2 grams
Survivors on Day 5 (P388 leukemia [2]; Exp. 8102, iv, 3.2 mg/kg/dose): 6/6
effectiveness versus iv-implanted leukemia (P388 leukemia [2]; [4]): not effective
maximum tolerated dose reached (P388 leukemia [2]; [4]): no indication of having reached a maximum tolerated dose
T/C (P388 leukemia [2]; Exp. 8109, iv, 16 μg/kg): 139%
% T/C (P388 leukemia [2]; [5]): 100%
Avg. wt. change on day 6 (P388 leukemia [2]; [5]): 0.4 grams
Survivors on Day 5 (P388 leukemia [2]; [5]): 6/6
T/C (P388 leukemia [2]; Exp. 8109, iv, 32 μg/kg): 156%
% T/C (P388 leukemia [2]; Exp. 8109, iv, 0.05 mg/kg/dose): 100%
Avg. wt. change on day 6 (P388 leukemia [2]; Exp. 8109, iv, 0.05 mg/kg/dose): 0.1 grams
Survivors on Day 5 (P388 leukemia [2]; Exp. 8109, iv, 0.05 mg/kg/dose): 6/6
% T/C (P388 leukemia [2]; Exp. 8109, iv, 0.1 mg/kg/dose): 106%
Avg. wt. change on day 6 (P388 leukemia [2]; Exp. 8109, iv, 0.1 mg/kg/dose): 0.4 grams
Survivors on Day 5 (P388 leukemia [2]; Exp. 8109, iv, 0.1 mg/kg/dose): 6/6
% T/C (P388 leukemia [2]; Exp. 8109, iv, 0.2 mg/kg/dose): 100%
Avg. wt. change on day 6 (P388 leukemia [2]; Exp. 8109, iv, 0.2 mg/kg/dose): -0.3 grams
Survivors on Day 5 (P388 leukemia [2]; Exp. 8109, iv, 0.2 mg/kg/dose): 6/6
% T/C (P388 leukemia [2]; Exp. 8109, iv, 0.4 mg/kg/dose): 100%
Avg. wt. change on day 6 (P388 leukemia [2]; Exp. 8109, iv, 0.4 mg/kg/dose): -0.4 grams
Survivors on Day 5 (P388 leukemia [2]; Exp. 8109, iv, 0.4 mg/kg/dose): 6/6
% T/C (P388 leukemia [2]; Exp. 8109, iv, 0.8 mg/kg/dose): 100%
Avg. wt. change on day 6 (P388 leukemia [2]; Exp. 8109, iv, 0.8 mg/kg/dose): -0.3 grams
Survivors on Day 5 (P388 leukemia [2]; Exp. 8109, iv, 0.8 mg/kg/dose): 6/6
% T/C (P388 leukemia [2]; Exp. 8109, iv, 1.6 mg/kg/dose): 100%
Avg. wt. change on day 6 (P388 leukemia [2]; Exp. 8109, iv, 1.6 mg/kg/dose): -0.1 grams
Survivors on Day 5 (P388 leukemia [2]; Exp. 8109, iv, 1.6 mg/kg/dose): 6/6
% T/C (P388 leukemia [2]; Exp. 8109, iv, 3.2 mg/kg/dose): 113%
Avg. wt. change on day 6 (P388 leukemia [2]; Exp. 8109, iv, 3.2 mg/kg/dose): -0.2 grams
Survivors on Day 5 (P388 leukemia [2]; Exp. 8109, iv, 3.2 mg/kg/dose): 6/6
increases in lifespan (P388 leukemia [2]; Exp. 8109, iv, at two dose levels evaluated): active increases
activity against disseminated iv implanted P388 leukemia (P388 leukemia [2]; conclusion, when adequate dosage was administered): active against the disseminated iv implanted P388 leukemia model
antibacterial activity spectrum (a variety of bacteria): broad spectrum of antibacterial activity; also recorded: antimicrobial activity against a broad spectrum of bacteria
